Experiments:
celastrol signature = experiment: Connectivity Map query with the celastrol signature; type: cell-based, human
In short: (§1)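 LNCaP cells received celastrol 1.25 μM or gedunin 20 μM for 6 h. Each signature was scored by Kolmogorov–Smirnov-based connectivity against 453 build01 profiles, mostly 6 h treatments of MCF7 cells.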

gedunin signature = experiment: Connectivity Map query with the gedunin signature; type: cell-based, human
In short: as §1

Raf-1 = experiment: Western blot of HSP90 client Raf-1 level; type: cell-based; conditions: LNCaP, 1.25 μM, 24 hours
HSP90-HOP interaction = experiment: HSP90 coimmunoprecipitation, HOP; type: cell-based; conditions: SKBR-3 cells; celastrol 2.5 μM, 12 hr
Protocol: Geldanamycin and other HSP90 inhibitors are known to inhibit p23 association with HSP90 (Felts et al., 2003). In contrast, HSP90-HOP interaction was unaltered by celastrol and other HSP90 inhibitors (FIG. 7F). Thus, celastrol inhibits the functional interactions of HSP90 and suppresses HSP90 client levels.
SKBR-3 cells were treated with vehicle, celastrol (2.5 μM, 12 hr), and PU24FCI (20 μM, 24 hr) (Vilenchik et al., 2004). Cells were lysed in 20 mM Tris HCl (pH 7.4), 25 mM NaCl, 2 mM DDT, 20 mM Na2MoO4, 0.1% NP-40, and […]. Lysates were incubated for 2 hr at 4° C., rotating, and then centrifuged at 13,000×g for 10 min. Protein (500 μg) was incubated with H9010 anti-HSP90 antibody for 1 hr at 4° C., rotating. Protein G agarose (30 μl; Upstate) was added to each sample, and samples were then incubated for 1 hr at 4° C., rotating. The beads were washed five times with 1 ml lysis buffer. Bound proteins were isolated by boiling in sample buffer. The levels of HSP90 and coimmunoprecipitating proteins were analyzed by western blot.

[1] = test system: mouse models of arthritis; conditions: purified celastrol, 1-3 mg/kg daily; cited from earlier work
[2] = test system: rat models for Alzheimer's disease; conditions: 7 mg/kg daily; cited from earlier work
hERG potassium channel = hERG potassium channel (Homo sapiens, UniProt Q12809); conditions: by inhibiting hERG maturation (Sun et al., 2006); cited from earlier work
hERG potassium channel, sequence (Q12809 whole entry): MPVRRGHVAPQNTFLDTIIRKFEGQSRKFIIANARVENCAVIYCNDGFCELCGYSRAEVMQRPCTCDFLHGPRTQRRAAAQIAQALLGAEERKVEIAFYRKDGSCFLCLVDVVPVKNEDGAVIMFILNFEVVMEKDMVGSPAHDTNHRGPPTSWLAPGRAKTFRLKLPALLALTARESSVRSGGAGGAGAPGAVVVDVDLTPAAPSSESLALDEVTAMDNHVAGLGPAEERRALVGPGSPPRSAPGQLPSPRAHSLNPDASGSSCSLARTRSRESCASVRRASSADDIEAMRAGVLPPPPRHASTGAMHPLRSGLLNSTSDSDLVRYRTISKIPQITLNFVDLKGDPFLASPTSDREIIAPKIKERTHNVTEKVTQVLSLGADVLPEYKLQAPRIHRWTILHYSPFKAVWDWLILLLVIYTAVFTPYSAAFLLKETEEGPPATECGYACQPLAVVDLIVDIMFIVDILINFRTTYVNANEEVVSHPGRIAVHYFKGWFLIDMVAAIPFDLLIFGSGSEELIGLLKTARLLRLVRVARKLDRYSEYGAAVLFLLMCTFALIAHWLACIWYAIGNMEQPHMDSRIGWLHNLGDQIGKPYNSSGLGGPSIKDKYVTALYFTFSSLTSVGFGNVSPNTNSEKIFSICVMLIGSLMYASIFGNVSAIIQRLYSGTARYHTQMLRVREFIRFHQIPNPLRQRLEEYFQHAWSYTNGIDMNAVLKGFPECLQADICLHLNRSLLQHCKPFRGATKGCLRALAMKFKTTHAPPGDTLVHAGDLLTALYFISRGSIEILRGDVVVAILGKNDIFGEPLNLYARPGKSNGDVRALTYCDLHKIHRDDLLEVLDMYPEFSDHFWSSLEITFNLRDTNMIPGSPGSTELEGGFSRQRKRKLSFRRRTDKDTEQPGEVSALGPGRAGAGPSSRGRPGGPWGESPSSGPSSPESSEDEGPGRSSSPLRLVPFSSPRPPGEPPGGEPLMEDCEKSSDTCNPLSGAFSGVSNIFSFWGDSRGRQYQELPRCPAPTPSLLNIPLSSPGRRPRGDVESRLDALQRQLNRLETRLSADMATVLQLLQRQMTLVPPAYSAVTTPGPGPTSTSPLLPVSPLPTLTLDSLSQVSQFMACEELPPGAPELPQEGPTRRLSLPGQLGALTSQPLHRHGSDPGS

HSP70 = conditions: Westerheide et al., 2004; cited from earlier work

What does the source list for `CC1=C(O)C(=O)C=C2C1=CC=C1[C@@]2(C)CC[C@@]2(C)[C@@H]3C[C@](C)(C(=O)O)CC[C@]3(C)CC[C@]12C` [celastrol]?
celastrol score (connectivity score) (celastrol signature; enrichment of the celastrol signature (1.25 μM celastrol at 6 h, LNCaP) in the compound's Connectivity Map profiles, 6 hr treatment): 0.85; Connectivity Map rank of match for the celastrol signature (celastrol signature; out of 164 compounds, signature from LNCaP 1.25 μM, 6 hr): fourth-ranked match; gedunin score (connectivity score) (gedunin signature; enrichment of the gedunin signature (20 μM gedunin at 6 hours, LNCaP) in the compound's Connectivity Map profiles, 6 hr treatment): 0.997; Connectivity Map rank of match for the gedunin signature (gedunin signature; out of 164 compounds, signature from LNCaP 20 μM, 6 hr): top match; level of Raf-1 (Raf-1): decreases the levels; HSP90-HOP interaction (coimmunoprecipitation) (HSP90-HOP interaction): unaltered; bioactivity in mouse models of arthritis [1]: significant bioactivity; activity in rat models for Alzheimer's disease [2]: activity; hERG potassium channel activity (hERG potassium channel): suppress hERG potassium channel activity; HSP70 levels (HSP70): induce HSP70 levels

From US20110263693A1, “CELASTROL, GEDUNIN, AND DERIVATIVES THEREOF AS HSP90 INHIBITORS” (DANA-FARBER CANCER INSTITUTE, INC., priority 2006, published 2011)
